Results published in the kinase profiling compilation of Christmann-Franck et al. (2016).

Assays:
Assay in all cases: KINOMEscan competition binding
Conditions in all cases: compound 10.0 µM
NUAK1 (human) = NUAK1 (human) (UniProt O60285)
TSSK1B (human) = TSSK1B (human) (UniProt Q9BXA7)
CDK5 (human) = CDK5 (human) (UniProt Q00535)
RPS6KA2 KD1 (human) = RPS6KA2 KD1 (human) (UniProt Q15349)
MAPK8 (human) = MAPK8 (human) (UniProt P45983)
IGF1R (human) = IGF1R (human) (UniProt P08069)
AXL (human) = AXL (human) (UniProt P30530)
DCLK1 (human) = DCLK1 (human) (UniProt O15075)
EPHB4 (human) = EPHB4 (human) (UniProt P54760)
NUAK2 (human) = NUAK2 (human) (UniProt Q9H093)
STK32C (human) = STK32C (human) (UniProt Q86UX6)
MET (human) = MET (human) (UniProt P08581)
CSNK1D (human) = CSNK1D (human) (UniProt P48730)
DDR1 (human) = DDR1 (human) (UniProt Q08345)
ACVR2A (human) = ACVR2A (human) (UniProt P27037)
NEK5 (human) = NEK5 (human) (UniProt Q6P3R8)
PKN2 (human) = PKN2 (human) (UniProt Q16513)
AAK1 (human) = AAK1 (human) (UniProt Q2M2I8)
ACVR1B (human) = ACVR1B (human) (UniProt P36896)
CDK14 (human) = CDK14 (human) (UniProt O94921)
PLK4 (human) = PLK4 (human) (UniProt O00444)
MAP2K7 (human) = MAP2K7 (human) (UniProt O14733)
AKT1 (human) = AKT1 (human) (UniProt P31749)
SIK3 (human) = SIK3 (human) (UniProt Q9Y2K2)
PAK6 (human) = PAK6 (human) (UniProt Q9NQU5)
MAST1 (human) = MAST1 (human) (UniProt Q9Y2H9)
TBK1 (human) = TBK1 (human) (UniProt Q9UHD2)
PRKD3 (human) = PRKD3 (human) (UniProt O94806)
CDC42BPA (human) = CDC42BPA (human) (UniProt Q5VT25)
RIOK2 (human) = RIOK2 (human) (UniProt Q9BVS4)
PRKCE (human) = PRKCE (human) (UniProt Q02156)
MAP3K13 (human) = MAP3K13 (human) (UniProt O43283)
CAMKK1 (human) = CAMKK1 (human) (UniProt Q8N5S9)
MYLK2 (human) = MYLK2 (human) (UniProt Q9H1R3)
LRRK2 (human) = LRRK2 (human) (UniProt Q5S007)
EPHA6 (human) = EPHA6 (human) (UniProt Q9UF33)
FES (human) = FES (human) (UniProt P07332)
IKBKB (human) = IKBKB (human) (UniProt O14920)
EPHB3 (human) = EPHB3 (human) (UniProt P54753)
PRKD2 (human) = PRKD2 (human) (UniProt Q9BZL6)

Sequence of EPHB4 (human) (P54760 whole entry, looked up): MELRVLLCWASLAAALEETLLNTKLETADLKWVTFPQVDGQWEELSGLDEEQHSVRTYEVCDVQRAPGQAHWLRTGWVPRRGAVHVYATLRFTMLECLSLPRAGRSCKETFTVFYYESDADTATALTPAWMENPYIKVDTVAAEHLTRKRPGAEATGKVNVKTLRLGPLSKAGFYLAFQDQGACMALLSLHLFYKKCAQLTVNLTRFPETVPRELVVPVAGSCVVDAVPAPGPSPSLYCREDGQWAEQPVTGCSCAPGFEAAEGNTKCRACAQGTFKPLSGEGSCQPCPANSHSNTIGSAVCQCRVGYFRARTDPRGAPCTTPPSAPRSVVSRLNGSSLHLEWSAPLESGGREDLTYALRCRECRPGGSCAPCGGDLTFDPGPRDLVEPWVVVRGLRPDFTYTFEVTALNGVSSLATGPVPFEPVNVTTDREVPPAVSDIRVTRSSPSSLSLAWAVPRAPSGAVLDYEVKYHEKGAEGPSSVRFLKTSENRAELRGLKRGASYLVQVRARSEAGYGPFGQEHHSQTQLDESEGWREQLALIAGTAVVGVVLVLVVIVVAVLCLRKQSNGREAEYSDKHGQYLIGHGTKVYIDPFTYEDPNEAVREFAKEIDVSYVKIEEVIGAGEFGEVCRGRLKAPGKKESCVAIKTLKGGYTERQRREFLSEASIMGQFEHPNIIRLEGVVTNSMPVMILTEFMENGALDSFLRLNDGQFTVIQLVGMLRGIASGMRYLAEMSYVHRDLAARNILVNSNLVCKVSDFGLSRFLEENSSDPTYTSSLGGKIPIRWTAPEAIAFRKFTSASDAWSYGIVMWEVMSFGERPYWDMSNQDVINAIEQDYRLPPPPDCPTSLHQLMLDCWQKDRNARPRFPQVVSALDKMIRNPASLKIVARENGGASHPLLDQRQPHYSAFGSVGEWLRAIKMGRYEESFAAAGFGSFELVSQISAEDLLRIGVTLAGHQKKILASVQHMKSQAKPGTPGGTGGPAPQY
Sequence of PLK4 (human) (O00444 whole entry, looked up): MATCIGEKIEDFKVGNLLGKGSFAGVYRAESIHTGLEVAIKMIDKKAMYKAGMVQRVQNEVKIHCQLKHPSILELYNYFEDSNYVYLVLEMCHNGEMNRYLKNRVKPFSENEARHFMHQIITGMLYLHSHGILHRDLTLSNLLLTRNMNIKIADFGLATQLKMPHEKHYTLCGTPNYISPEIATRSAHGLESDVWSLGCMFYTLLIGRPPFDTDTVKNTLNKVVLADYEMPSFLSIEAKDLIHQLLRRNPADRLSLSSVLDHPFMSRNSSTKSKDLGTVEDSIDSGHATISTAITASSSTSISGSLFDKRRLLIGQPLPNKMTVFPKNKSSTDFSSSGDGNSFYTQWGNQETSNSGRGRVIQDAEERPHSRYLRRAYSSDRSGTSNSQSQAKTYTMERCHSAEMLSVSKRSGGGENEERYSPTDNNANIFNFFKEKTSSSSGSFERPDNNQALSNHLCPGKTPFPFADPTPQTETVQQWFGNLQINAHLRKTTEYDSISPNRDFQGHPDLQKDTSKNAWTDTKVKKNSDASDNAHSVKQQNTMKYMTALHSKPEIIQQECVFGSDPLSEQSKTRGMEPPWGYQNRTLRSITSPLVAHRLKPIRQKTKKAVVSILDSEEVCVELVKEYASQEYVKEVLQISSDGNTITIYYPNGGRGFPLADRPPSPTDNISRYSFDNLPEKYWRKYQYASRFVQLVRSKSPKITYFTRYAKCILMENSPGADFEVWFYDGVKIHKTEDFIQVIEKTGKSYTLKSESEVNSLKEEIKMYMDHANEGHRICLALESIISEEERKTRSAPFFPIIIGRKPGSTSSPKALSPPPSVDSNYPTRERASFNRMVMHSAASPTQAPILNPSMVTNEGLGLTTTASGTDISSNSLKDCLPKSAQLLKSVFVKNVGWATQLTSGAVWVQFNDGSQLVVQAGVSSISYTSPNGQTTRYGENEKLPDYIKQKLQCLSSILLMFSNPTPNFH
Sequence of MET (human) (P08581 whole entry, looked up): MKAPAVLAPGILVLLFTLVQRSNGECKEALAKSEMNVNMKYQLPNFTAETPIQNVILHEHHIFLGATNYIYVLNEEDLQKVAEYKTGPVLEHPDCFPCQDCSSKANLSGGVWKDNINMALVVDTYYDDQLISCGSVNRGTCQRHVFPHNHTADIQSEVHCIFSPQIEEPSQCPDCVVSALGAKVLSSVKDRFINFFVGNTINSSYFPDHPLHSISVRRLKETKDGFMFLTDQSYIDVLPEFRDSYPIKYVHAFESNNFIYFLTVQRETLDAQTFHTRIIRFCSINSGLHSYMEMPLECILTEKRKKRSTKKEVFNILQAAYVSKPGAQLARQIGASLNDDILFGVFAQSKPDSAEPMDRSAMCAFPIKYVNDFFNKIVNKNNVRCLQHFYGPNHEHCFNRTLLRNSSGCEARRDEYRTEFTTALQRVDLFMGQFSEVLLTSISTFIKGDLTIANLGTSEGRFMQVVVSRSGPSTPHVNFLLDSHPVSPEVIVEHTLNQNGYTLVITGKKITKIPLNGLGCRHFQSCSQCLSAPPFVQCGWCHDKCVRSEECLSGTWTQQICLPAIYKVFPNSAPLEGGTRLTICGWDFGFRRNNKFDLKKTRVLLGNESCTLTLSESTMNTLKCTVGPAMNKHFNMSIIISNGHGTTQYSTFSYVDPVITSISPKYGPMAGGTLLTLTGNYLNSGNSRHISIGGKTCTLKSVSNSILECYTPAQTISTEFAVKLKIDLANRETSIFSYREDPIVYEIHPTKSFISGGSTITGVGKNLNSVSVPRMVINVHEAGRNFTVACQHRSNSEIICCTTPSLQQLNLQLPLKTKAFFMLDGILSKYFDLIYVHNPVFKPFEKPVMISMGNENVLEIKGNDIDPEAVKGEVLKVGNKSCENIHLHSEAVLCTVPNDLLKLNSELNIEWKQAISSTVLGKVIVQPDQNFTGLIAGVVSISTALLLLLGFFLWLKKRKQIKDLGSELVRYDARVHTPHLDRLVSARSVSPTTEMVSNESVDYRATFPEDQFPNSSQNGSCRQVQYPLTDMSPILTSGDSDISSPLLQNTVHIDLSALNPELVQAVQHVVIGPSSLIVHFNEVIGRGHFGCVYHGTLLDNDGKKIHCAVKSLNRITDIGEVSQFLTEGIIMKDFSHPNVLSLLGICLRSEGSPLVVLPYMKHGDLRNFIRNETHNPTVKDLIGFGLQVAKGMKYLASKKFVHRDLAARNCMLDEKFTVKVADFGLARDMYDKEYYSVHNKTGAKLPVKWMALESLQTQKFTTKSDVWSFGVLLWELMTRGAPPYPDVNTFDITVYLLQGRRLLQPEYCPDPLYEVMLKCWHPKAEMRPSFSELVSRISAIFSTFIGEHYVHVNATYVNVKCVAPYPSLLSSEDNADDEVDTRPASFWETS
Sequence of MAP3K13 (human) (O43283 whole entry, looked up): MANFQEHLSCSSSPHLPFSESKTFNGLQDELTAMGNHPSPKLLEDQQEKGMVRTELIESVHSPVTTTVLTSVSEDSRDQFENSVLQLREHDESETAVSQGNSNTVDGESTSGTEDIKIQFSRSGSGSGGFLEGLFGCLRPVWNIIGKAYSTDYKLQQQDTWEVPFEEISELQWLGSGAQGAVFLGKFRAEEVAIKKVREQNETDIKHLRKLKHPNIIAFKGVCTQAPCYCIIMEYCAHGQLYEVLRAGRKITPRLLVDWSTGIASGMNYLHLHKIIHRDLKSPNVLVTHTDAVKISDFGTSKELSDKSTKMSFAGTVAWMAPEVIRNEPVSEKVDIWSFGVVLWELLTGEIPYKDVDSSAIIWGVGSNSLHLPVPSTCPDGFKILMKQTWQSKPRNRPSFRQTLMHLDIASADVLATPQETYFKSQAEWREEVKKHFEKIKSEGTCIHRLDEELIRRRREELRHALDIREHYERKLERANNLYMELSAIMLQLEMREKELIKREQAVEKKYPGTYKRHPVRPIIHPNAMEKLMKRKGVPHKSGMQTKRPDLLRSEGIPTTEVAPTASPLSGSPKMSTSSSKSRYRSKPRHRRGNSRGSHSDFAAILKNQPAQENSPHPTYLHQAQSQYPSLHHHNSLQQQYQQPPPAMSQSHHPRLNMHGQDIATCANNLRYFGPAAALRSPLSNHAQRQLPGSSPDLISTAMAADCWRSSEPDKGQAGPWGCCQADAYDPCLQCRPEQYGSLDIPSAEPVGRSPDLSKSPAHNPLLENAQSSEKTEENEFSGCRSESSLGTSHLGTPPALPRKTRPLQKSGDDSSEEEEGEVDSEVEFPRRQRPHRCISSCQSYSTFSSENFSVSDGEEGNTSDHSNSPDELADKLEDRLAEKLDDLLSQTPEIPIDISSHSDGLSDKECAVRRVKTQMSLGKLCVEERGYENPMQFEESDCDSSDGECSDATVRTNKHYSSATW
Sequence of RIOK2 (human) (Q9BVS4 whole entry, looked up): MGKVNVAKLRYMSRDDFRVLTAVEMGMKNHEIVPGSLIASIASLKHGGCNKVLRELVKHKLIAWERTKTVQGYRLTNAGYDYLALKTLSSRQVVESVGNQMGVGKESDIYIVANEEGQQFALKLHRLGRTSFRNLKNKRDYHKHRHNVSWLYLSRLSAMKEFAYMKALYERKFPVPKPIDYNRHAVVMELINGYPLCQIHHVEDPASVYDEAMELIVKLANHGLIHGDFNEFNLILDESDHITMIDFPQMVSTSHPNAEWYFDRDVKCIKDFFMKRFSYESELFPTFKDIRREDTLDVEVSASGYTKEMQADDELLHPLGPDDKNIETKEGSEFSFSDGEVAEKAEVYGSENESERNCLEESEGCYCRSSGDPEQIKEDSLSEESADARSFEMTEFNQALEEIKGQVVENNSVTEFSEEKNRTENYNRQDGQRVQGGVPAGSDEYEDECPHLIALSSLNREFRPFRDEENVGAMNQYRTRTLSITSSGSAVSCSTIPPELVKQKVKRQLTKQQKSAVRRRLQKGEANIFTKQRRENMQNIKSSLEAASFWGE

| Structure (SMILES) | kinase still bound, per cent of control (NUAK1 (human)) | kinase still bound, per cent of control (CDK5 (human)) | kinase still bound, per cent of control (RPS6KA2 KD1 (human)) | kinase still bound, per cent of control (MAPK8 (human)) | kinase still bound, per cent of control (IGF1R (human)) | kinase still bound, per cent of control (AXL (human)) | kinase still bound, per cent of control (DCLK1 (human)) | kinase still bound, per cent of control (NUAK2 (human)) | kinase still bound, per cent of control (STK32C (human)) | kinase still bound, per cent of control (MET (human)) | kinase still bound, per cent of control (CSNK1D (human)) | kinase still bound, per cent of control (DDR1 (human)) | kinase still bound, per cent of control (ACVR2A (human)) | kinase still bound, per cent of control (NEK5 (human)) | kinase still bound, per cent of control (PKN2 (human)) | kinase still bound, per cent of control (AAK1 (human)) | kinase still bound, per cent of control (ACVR1B (human)) | kinase still bound, per cent of control (CDK14 (human)) | kinase still bound, per cent of control (PLK4 (human)) | kinase still bound, per cent of control (MAP2K7 (human)) | other results |
| --- | --- | --- | --- | --- | --- | --- | --- | --- | --- | --- | --- | --- | --- | --- | --- | --- | --- | --- | --- | --- | --- |
| NC(=O)Nc1cc(-c2cccc(F)c2)sc1C(=O)N[C@@H]1CCCNC1 | 0% | 100% | 5% | 29% | 44% | 0% | 2.4% | 2.2% | 53% | 3.1% | 15% | 10% | 2.2% | 90% | 38% | 1.3% | 28% | 100% | 0% | 80% | kinase still bound, per cent of control (TSSK1B (human)): 2.6%; kinase still bound, per cent of control (EPHB4 (human)): 6.4%; kinase still bound, per cent of control (AKT1 (human)): 3.2%; kinase still bound, per cent of control (SIK3 (human)): 6.2%; kinase still bound, per cent of control (PAK6 (human)): 0.35%; kinase still bound, per cent of control (MAST1 (human)): 4.1%; kinase still bound, per cent of control (TBK1 (human)): 4.8%; kinase still bound, per cent of control (PRKD3 (human)): 2.2%; kinase still bound, per cent of control (CDC42BPA (human)): 62%; kinase still bound, per cent of control (RIOK2 (human)): 48%; kinase still bound, per cent of control (PRKCE (human)): 14%; kinase still bound, per cent of control (MAP3K13 (human)): 7%; kinase still bound, per cent of control (CAMKK1 (human)): 7%; kinase still bound, per cent of control (MYLK2 (human)): 67%; kinase still bound, per cent of control (LRRK2 (human)): 4%; kinase still bound, per cent of control (EPHA6 (human)): 8.2%; kinase still bound, per cent of control (FES (human)): 0.65%; kinase still bound, per cent of control (IKBKB (human)): 2.5%; kinase still bound, per cent of control (EPHB3 (human)): 95%; kinase still bound, per cent of control (PRKD2 (human)): 0.9% |
| N#CCNC(=O)c1ccc(-c2ccnc(Nc3ccc(N4CCOCC4)cc3)n2)cc1 | 45% | 100% | 100% | 1% | 100% | 57% | 52% | 8.9% | 100% | 100% | 100% | 100% | 75% | 2.4% | 47% | 3.9% | 38% | 76% | 15% | 100% | kinase still bound, per cent of control (TSSK1B (human)): 100%; kinase still bound, per cent of control (EPHB4 (human)): 100%; kinase still bound, per cent of control (AKT1 (human)): 100%; kinase still bound, per cent of control (SIK3 (human)): 100%; kinase still bound, per cent of control (PAK6 (human)): 100%; kinase still bound, per cent of control (MAST1 (human)): 42%; kinase still bound, per cent of control (TBK1 (human)): 10%; kinase still bound, per cent of control (PRKD3 (human)): 65%; kinase still bound, per cent of control (CDC42BPA (human)): 67%; kinase still bound, per cent of control (RIOK2 (human)): 68%; kinase still bound, per cent of control (PRKCE (human)): 59%; kinase still bound, per cent of control (MAP3K13 (human)): 77%; kinase still bound, per cent of control (CAMKK1 (human)): 27%; kinase still bound, per cent of control (MYLK2 (human)): 23%; kinase still bound, per cent of control (LRRK2 (human)): 48%; kinase still bound, per cent of control (EPHA6 (human)): 98%; kinase still bound, per cent of control (FES (human)): 100%; kinase still bound, per cent of control (IKBKB (human)): 0.15%; kinase still bound, per cent of control (EPHB3 (human)): 100%; kinase still bound, per cent of control (PRKD2 (human)): 43% |
| CNC(=O)c1cc(Oc2ccc(NC(=O)Nc3ccc(Cl)c(C(F)(F)F)c3)cc2)ccn1 | 84% | 39% | 55% | 100% | 100% | 7.8% | 98% | 100% | 100% | 69% | 100% | 0% | 100% | 90% | 100% | 100% | 92% | 8.6% | 28% | 88% | kinase still bound, per cent of control (TSSK1B (human)): 78%; kinase still bound, per cent of control (AKT1 (human)): 100%; kinase still bound, per cent of control (SIK3 (human)): 100%; kinase still bound, per cent of control (PAK6 (human)): 91%; kinase still bound, per cent of control (MAST1 (human)): 100%; kinase still bound, per cent of control (TBK1 (human)): 100%; kinase still bound, per cent of control (PRKD3 (human)): 67%; kinase still bound, per cent of control (CDC42BPA (human)): 95%; kinase still bound, per cent of control (RIOK2 (human)): 97%; kinase still bound, per cent of control (PRKCE (human)): 86%; kinase still bound, per cent of control (MAP3K13 (human)): 100%; kinase still bound, per cent of control (CAMKK1 (human)): 89%; kinase still bound, per cent of control (MYLK2 (human)): 43%; kinase still bound, per cent of control (LRRK2 (human)): 77%; kinase still bound, per cent of control (EPHA6 (human)): 9.2%; kinase still bound, per cent of control (FES (human)): 74%; kinase still bound, per cent of control (IKBKB (human)): 100%; kinase still bound, per cent of control (EPHB3 (human)): 100%; kinase still bound, per cent of control (PRKD2 (human)): 96% |
| COc1cc2ncn(-c3cc(OCc4ccccc4C(F)(F)F)c(C(N)=O)s3)c2cc1OC | 21% | 100% | 61% | 100% | 100% | 65% | 49% | 6% | 100% | 15% | 81% | 100% | 79% | 36% | 39% | 28% | 76% | 90% | 29% | 87% | kinase still bound, per cent of control (EPHB4 (human)): 87%; kinase still bound, per cent of control (AKT1 (human)): 100%; kinase still bound, per cent of control (SIK3 (human)): 76%; kinase still bound, per cent of control (PAK6 (human)): 94%; kinase still bound, per cent of control (MAST1 (human)): 75%; kinase still bound, per cent of control (TBK1 (human)): 83%; kinase still bound, per cent of control (PRKD3 (human)): 100%; kinase still bound, per cent of control (CDC42BPA (human)): 68%; kinase still bound, per cent of control (RIOK2 (human)): 66%; kinase still bound, per cent of control (PRKCE (human)): 100%; kinase still bound, per cent of control (MAP3K13 (human)): 100%; kinase still bound, per cent of control (MYLK2 (human)): 59%; kinase still bound, per cent of control (LRRK2 (human)): 80%; kinase still bound, per cent of control (EPHA6 (human)): 59%; kinase still bound, per cent of control (FES (human)): 87%; kinase still bound, per cent of control (EPHB3 (human)): 76%; kinase still bound, per cent of control (PRKD2 (human)): 100% |
